Laboratory results taken from US11382328B2, “Rapid drug discovery methods for pathogen inactivation” (priority 2019, dated 2022).

System: E. coli strain W3110
Assay: Synergy assays: Biolog chemical sensitivity panels with Group IB metal, coefficient of drug interaction (CDI) from relative growth
Format: cell-based

## spiramycin
Copper (mM), 1st of 3 copper concentrations (head line not shown), biocide concentration 1 of 4, E. coli
  CDI (coefficient of drug interaction): 1.00
Copper (mM), 1st of 3 copper concentrations (head line not shown), biocide concentration 3 of 4, E. coli
  CDI (coefficient of drug interaction): 0.94
Copper (mM), 1st of 3 copper concentrations (head line not shown), biocide concentration 4 of 4, E. coli
  CDI (coefficient of drug interaction): Tox
Copper (mM), 2nd of 3 copper concentrations (head line not shown), biocide concentration 1 of 4, E. coli
  CDI (coefficient of drug interaction): 0.89
Copper (mM), 2nd of 3 copper concentrations (head line not shown), biocide concentration 2 of 4, E. coli
  CDI (coefficient of drug interaction): Tox
Copper (mM), 2nd of 3 copper concentrations (head line not shown), biocide concentration 3 of 4, E. coli
  CDI (coefficient of drug interaction): Tox
Copper (mM), 2nd of 3 copper concentrations (head line not shown), biocide concentration 4 of 4, E. coli
  CDI (coefficient of drug interaction): Tox
Copper (mM), 3rd of 3 copper concentrations (head line not shown), biocide concentration 1 of 4, E. coli
  CDI (coefficient of drug interaction): 0.92
Copper (mM), 3rd of 3 copper concentrations (head line not shown), biocide concentration 2 of 4, E. coli
  CDI (coefficient of drug interaction): 0.91
Copper (mM), 3rd of 3 copper concentrations (head line not shown), biocide concentration 3 of 4, E. coli
  CDI (coefficient of drug interaction): 3.40
Copper (mM), 3rd of 3 copper concentrations (head line not shown), biocide concentration 4 of 4, E. coli
  CDI (coefficient of drug interaction): Tox
Gold section of Table 5, first of three gold concentrations (μM, value not given), biocide concentration 1 of 4
  CDI (coefficient of drug interaction): 1.03
Gold section of Table 5, first of three gold concentrations (μM, value not given), biocide concentration 2 of 4
  CDI (coefficient of drug interaction): 1.00
Gold section of Table 5, first of three gold concentrations (μM, value not given), biocide concentration 3 of 4
  CDI (coefficient of drug interaction): Tox
Gold section of Table 5, first of three gold concentrations (μM, value not given), biocide concentration 4 of 4
  CDI (coefficient of drug interaction): Tox
Gold section of Table 5, second of three gold concentrations (μM, value not given), biocide concentration 2 of 4
  CDI (coefficient of drug interaction): 0.67
Gold section of Table 5, second of three gold concentrations (μM, value not given), biocide concentration 3 of 4
  CDI (coefficient of drug interaction): Tox
Gold section of Table 5, second of three gold concentrations (μM, value not given), biocide concentration 4 of 4
  CDI (coefficient of drug interaction): Tox
Gold section of Table 5, third of three gold concentrations (μM, value not given), biocide concentration 1 of 4
  CDI (coefficient of drug interaction): 0.84
Gold section of Table 5, third of three gold concentrations (μM, value not given), biocide concentration 2 of 4
  CDI (coefficient of drug interaction): 0.33
Gold section of Table 5, third of three gold concentrations (μM, value not given), biocide concentration 3 of 4
  CDI (coefficient of drug interaction): Tox
Gold section of Table 5, third of three gold concentrations (μM, value not given), biocide concentration 4 of 4
  CDI (coefficient of drug interaction): Tox
Silver 0.5 μM, biocide concentration 1 of 4
  CDI: 0.83
Silver 0.5 μM, biocide concentration 2 of 4
  CDI: Tox
Silver 0.5 μM, biocide concentration 3 of 4
  CDI: Tox
Silver 0.5 μM, biocide concentration 4 of 4
  CDI: Tox
Silver 1.0 μM, biocide concentration 1 of 4
  CDI: 0.96
Silver 1.0 μM, biocide concentration 2 of 4
  CDI: Tox
Silver 1.0 μM, biocide concentration 3 of 4
  CDI: Tox
Silver 1.0 μM, biocide concentration 4 of 4
  CDI: Tox
Silver 5.0 μM, biocide concentration 1 of 4
  CDI: 0.83
Silver 5.0 μM, biocide concentration 2 of 4
  CDI: Tox
Silver 5.0 μM, biocide concentration 3 of 4
  CDI: Tox
Silver 5.0 μM, biocide concentration 4 of 4
  CDI: Tox
